The values below come from US5981256A, “Recombinant stratum corneum chymotryptic enzyme (SCCE)” (priority 1993, dated 1999).

The target in assay [1] is T1, 25 kD caseinolytic enzyme of plantar corneocytes (native stratum corneum chymotryptic enzyme, SCCE) (Homo sapiens, UniProt P49862).
T1 construct: from tissue; host or cells: human plantar stratum corneum, dissociated corneocytes (suspended cells, SDS-extract or KCl-extract)
In words: Zymography (SDS-PAGE with co-polymerized casein) of extracts of plantar corneocytes. In kind it is biochemical. As to conditions: pH 8. The procedure:
C: The effect of inhibitors. sc=SDS-extract of plantar corneocytes; c=bovine chymotrypsin; t=bovine trypsin. The inhibitors were present during pretreatment with Triton X-100 and the subsequent incubation. […] Leupeptin and chymostatin were added as solutions in dimethylsulphoxide (DMSO). Buffer for pretreatment and incubation=0.1 M Tris-HCl pH 8 with final concentration of DMSO 1% (v/v). Other conditions as in A.
SDS-PAGE and Coomassie blue-staining (A) and zymography after SDS-PAGE with co-polymerized casein (B) of fractions 2, 6, and 10 from the chromatogram shown in FIG. 10. Molecular weight markers to the left.
Therefore experiments with zymography were performed. For this reason KCl extracts of corneocytes were prepared for electrophoresis according to Laemmli (Laemmli 1970) but with no reducing agent in the sample buffer and with no heating of the samples. Samples were also prepared by means of extraction of dissociated plantar corneocytes with Laemmli's sample buffer without reducing agent at room temperature. For zymography a modification of the procedure of Horie et al. (Horie et al. 1984) was adopted. Polyacrylamide gel elctrophoresis in the presence of sodium dodecyl sulphate (SDS-PAGE) was carried out according to Laemmli in 12.5% gels with 1% co-polymerized heat-denatured casein. […]

Assay [2] concerns plantar stratum corneum. As to conditions: cited from earlier work.
For assay [3], the target named is proteinase associated with plantar stratum corneum cells (native human stratum corneum chymotryptic enzyme, SCCE) (Homo sapiens, UniProt P49862). The assay is described as follows: Hydrolysis of S-2586 by the proteinase associated with plantar stratum corneum cells (suspended cells). As to conditions: for Activity (%) (±SD, n = 3), hydrolysis of S-2586: pH 8, control = 100.

In assay [4] the test system is plantar stratum corneum. The assay is described as follows: Cell release (cell shedding) from plantar stratum corneum in vitro. In kind it is cell-based. As to conditions: Homo sapiens, 16 hours at 37° C., mean and SD for five tissue pieces. The procedure: A method to quantify the cell shedding was then developed, which allowed studies on the effects of various parameters such as temperature, pH, and enzyme inhibitors. Cylinders of plantar stratum corneum with diameter 3 mm were prepared with a biopsy punch from flakes of tissue taken and freed from loosely attached surface cells as described above in 1.1. […] The remaining tissue was removed and placed in fresh media for continued incubation. Tubes with released cells were centrifuged for 2 min at 5000 g to collect the cells. The cell pellets were washed once with 0.5 ml of phosphate buffered saline and then treated at 60° C. for 1.5 hours with 0.6 ml of 1 M sodium hydroxide. The alkali soluble protein was quantified according to Lowry et al., 1951, and taken as a measure of the amount of released cells.

Assay [5] has as its system desmoglein I (DG I) in plantar stratum corneum. The assay is described as follows: Degradation of desmoglein I (DG I) in plantar stratum corneum during cell shedding in vitro (immunoblot). The class given is cell-based, human. Conditions: inhibitor 330 μM; 24 hours. The procedure:
The fate of desmoglein I (DG I) during cell shedding in vitro from plantar stratum corneum was studied. Plantar stratum corneum was incubated as described above in 1.1, and still cohesive tissue was separated from dissociated cells. Cells and tissue were extracted in a buffer containing 0.1 M Tris-HCl pH 9, 9 M urea, 2% sodium dodecylsulphate, 1% mercaptoethanol, 1 ml buffer per 20 mg of tissue, for 15 hours at 37° C. The extracts were prepared for polyacrylamide gel electrophoresis in 7.5% gels in the presence of sodium dodecyl sulphate (SDS-PAGE) according to Laemmli (Laemmli, 1970), followed by electrophoretic transfer (Towbin et al., 1979) to a nitrocellulose membrane (Bio-Rad, Richmond, Calif.) which was probed with a rabbit polyclonal antiserum prepared against DG I purified from bovine muzzles (Gorbsky et al. 1985). Bound antibodies were detected with alkaline phosphatase conjugated goat anti-rabbit immunoglobulins (Bio-Rad, Richmond, Calif.) (Blake et al. 1984).
SDS-PAGE and immunoblotting was performed as described above. Densitometric scannings of the immunblots were carried out in a Shimadzu CS-9000 flying spot scanner (Shimadzu, Kyoto, Japan) with reflected light at 560 nm in the zigzag mode.
(In general: Immunoblotting shows a protein as a band on a membrane.)

In assay [6] the target is T2, native stratum corneum chymotryptic enzyme (SCCE), KCl-extract of dissociated plantar corneocytes (Homo sapiens, UniProt P49862).
T2 construct: from tissue; host or cells: human plantar stratum corneum, dissociated corneocytes (suspended cells, SDS-extract or KCl-extract)
In words: Proteinase assay with chromogenic substrate S-2586, native SCCE. In kind it is biochemical. As to conditions: S-2586 1.2 mM, pH 8.0, FIG. 9B. The procedure: (§1) Stock solution of MeO-Suc-Arg-Pro-Tyr-pNA (S-2586) was prepared in distilled water, of Suc-Ala-Ala-Pro-Phe-pNA (SEQ ID NO:11) (Boehringer, Mannheim, Germany) in 1-methyl-2-pyrrolidone (final concentration of solvent in incubation mixtures 4%) and of chymostatin in dimethyl sulphoxide (final concentration of solvent in incubation mixtures 1%). Cathepsin G from purulent human sputum was obtained from E. Lotti, Geneva, Switzerland. The source of SCCE was KCl-extract of dissociated plantar corneocytes prepared as described above.
(§2) Incubations were performed at 37° C. in microtiter plates. The total incubation volume was 135 μl. Each incubation mixture contained Tris-HCl pH 8.0 (final concentration 0.08 M), KCl (final concentration 0.2 M), 100 μl substrate solution, 25 μl enzyme source (appropriately diluted in 0.1 M Tris-HCl pH 8.0, 1.0 M KCl) and 10 μl inhibitor solution.
(§3) In FIG. 9, A-C, MeO-Suc-Arg-Pro-Tyr-pNA (S-2586, initial concentration 1.2 mM) was used as substrate. In D the initial concentration of both substrates was 1.2 mM.

Another assay has as its target bovine chymotrypsin (Bos taurus, UniProt P00766). In words: Proteinase assay with chromogenic substrate S-2586, bovine chymotrypsin. As to conditions: S-2586 1.2 mM; pH 8.0; 37° C.; FIG. 9B. In kind it is biochemical. The procedure: as §1, §2, §3
Assay [7] concerns the target T3, human cathepsin G (from purulent human sputum) (Homo sapiens, UniProt P08311).
T3 construct: Cathepsin G from purulent human sputum; tissue E. Lotti, Geneva, Switzerland; host or cells: purulent human sputum
T3 sequence (P08311 21-244 limits assumed): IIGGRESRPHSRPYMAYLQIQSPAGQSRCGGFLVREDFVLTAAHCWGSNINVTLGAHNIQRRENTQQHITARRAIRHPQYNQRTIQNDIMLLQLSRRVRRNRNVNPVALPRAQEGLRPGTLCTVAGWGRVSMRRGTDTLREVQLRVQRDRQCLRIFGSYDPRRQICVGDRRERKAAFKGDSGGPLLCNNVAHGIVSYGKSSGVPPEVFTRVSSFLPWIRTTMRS
In words: Proteinase assay with chromogenic substrate S-2586, human cathepsin G. The class given is biochemical. Conditions: S-2586 1.2 mM; pH 8.0; 37° C.; FIG. 9B. The procedure: as §1, §2, §3

In assay [8] the target is T4, recombinant human stratum corneum chymotryptic enzyme (rSCCE), SEQ ID NO:2 (Homo sapiens, UniProt P49862).
T4 construct: made in house; host or cells: murine C127 cells (ATCC CRL 1616), vector pS507
In words: S-2586 hydrolysing activity of recombinant SCCE with inhibitors. In kind it is biochemical. Conditions: no inhibitor = 100. The procedure:
as §2, §3
The experimental design was as outlined in Example 3.2.

[9] abbreviates: pH 8, read-out: Activity (%) (±SD, n = 3), hydrolysis of S-2586.

Square brackets hold non-standard residues; d marks the D form. Peptide text beside a SMILES is read from it. * marks the point of attachment. Sta = CC(C)C[C@H](N)[C@@H](O)CC(=O)O; Isovaleryl = CC(C)CC(=O)*

T1 sequence (P49862 30-253): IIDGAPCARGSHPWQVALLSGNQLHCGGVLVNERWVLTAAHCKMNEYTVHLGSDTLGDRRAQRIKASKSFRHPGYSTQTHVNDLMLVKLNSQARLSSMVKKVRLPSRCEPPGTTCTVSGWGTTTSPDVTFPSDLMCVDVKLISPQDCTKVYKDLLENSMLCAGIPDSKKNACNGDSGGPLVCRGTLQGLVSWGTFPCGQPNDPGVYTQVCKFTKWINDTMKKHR
T4 sequence (P49862 30-253): as above
Chain of proteinase associated with plantar stratum corneum cells (native human stratum corneum chymotryptic enzyme, SCCE) (P49862 30-253): as above
T2 sequence (P49862 30-253): as above

With `CC(=O)N[C@@H](CC(C)C)C(=O)N[C@@H](CC(C)C)C(=O)N[C@H](C=O)CCCNC(=N)N` [Leupeptin, leupeptin], the “Inhibition of caseinolytic activity (zymography)” value in assay [1] (leupeptin 160 μM) is listed as “not by leupeptin”. Moreover, the “Effect on the in vitro cell shedding” value in the assay with plantar stratum corneum [2] is given as “no effect”. Besides, the activity at 325 µM in assay [3] (setting [9]) worked out at 93 ± 3%.

Regarding `O=C(O)CN(CCN(CC(=O)O)CC(=O)O)CC(=O)O` [EDTA], the activity at 4200 µM in assay [3] (setting [9]) was found to be 109 ± 1%.

In the assay on plantar stratum corneum [4] (pepstatin 1 × 10^-4 mol/l), `CC(C)CC(=O)N[C@H](C(=O)N[C@H](C(=O)N[C@@H](CC(C)C)[C@@H](O)CC(=O)N[C@@H](C)C(=O)N[C@@H](CC(C)C)[C@@H](O)CC(=O)O)C(C)C)C(C)C` [Pepstatin, pepstatin] (Isovaleryl-VV[Sta]A[Sta]-OH) showed an inhibition at 100 µM of 8 ± 4%.

As to chymostatin, the “Inhibition of the transformation of anti-DG I positive components from 160 kD to 95 and 80 kD” value in assay [5] is reported as “inhibition”. In assay [1] (chymostatin 40 μM), the “Inhibition of caseinolytic activity (zymography)” value is reported as “could be inhibited”. The “Inhibition of S-2586 hydrolysis” value (in assay [6] (37° C.); at bovine chymotrypsin; in assay [7]) was “caused inhibition” throughout. Besides, the “Inhibitor concentration that caused 50% inhibition, SCCE compared with chymotrypsin and cathepsin G” value in [6] is given as “more than three orders of magnitude higher”. The “Activity (%), S-2586 hydrolysing activity” value is 74.9% in assay [8] (chymostatin 0.64 μM), 33% in assay [8] (chymostatin 2.56 μM) and 1.9% in assay [8] (chymostatin 41 μM). In addition, the “Inhibition of the first step of cell shedding in vitro” value in the assay on plantar stratum corneum [2] (first step, takes place with or without EDTA) is recorded as “could be inhibited”. The “Inhibition of the second step of cell shedding in vitro” value with plantar stratum corneum [2] (second step, only in the presence of EDTA) is given as “could be inhibited”. Besides, the “Activity (%) (±SD, n = 3), hydrolysis of S-2586” value is 66 ± 9% in [3] (chymostatin 11 μM, 5% DMSO); 32 ± 0% in [3] (chymostatin 55 μM, 5% DMSO); 15 ± 3% in [3] (chymostatin 275 μM, 5% DMSO).

Turning to `O=S(=O)(F)Cc1ccccc1` [PMSF, phenylmethylsulphonyl fluoride], the “Activity (%) (±SD, n = 3), hydrolysis of S-2586” value in assay [3] (PMSF 1 mM, preincubated 1 hour at room temperature) was 8 ± 3%.

With `NC(=O)CI` [Iodoacetamide, iodoacetamide], the inhibition at 1000 µM in the assay with plantar stratum corneum [4] (iodoacetamide 1 × 10^-3 mol/l) was 6 ± 13%.

As usually defined, the inhibition is the drop in the measured response relative to a control, in per cent. Higher therefore signals a response far below the control.
